Test results from US9598393B2, “Structural variants of mycolactones for use in modulating inflammation, immunity and pain” (priority 2011, dated 2017).
Like-named read-outs stand apart in the source and are kept apart here.

Legend:
[1] = test system: CD62-L receptor expression by human peripheral blood cells (PBLs); test: T cell homing: expression of CD62-L receptor, flow cytometry; format: cell-based; conditions: for CD62-L expression (MFI: mean fluorescence intensity) (D) % relative to control / IC50: human PBLs, 72 h; for IC50: % inhibition relative to control, read-out: CD62-L expression (D): IC50 value (concentration at which the compound induces 50% of mycolactone maximal activity); for CD62-L expression (D): corresponding % of mycolactone activity (in brackets): relative to mycolactone (100%)
Protocol: (D) The effect of mycolactone and variants on T cell homing was assessed through their inhibitory effect on the expression of CD62-L receptor by human peripheral blood cells (PBLs). Human PBLs were isolated from total blood by Ficoll density gradient centrifugation. They were incubated in 96-well plates (10^5 cells/well in RPMI 1640 medium supplemented with 10% fetal calf serum and 2 mM L-Glutamine) with mycolactone or variant for 72 h. Cells were then fixed for 20 min in 4% paraformaldehyde (PFA) and stained with an anti-CD62-L antibody coupled with phycoerythrin in a solution of PBS, BSA 0.5%, saponin 0.05%, then analysed by flow cytometry.

[2] = test system: IL-2 production by Jurkat T cells; test: Immunosuppressive activity: activation-induced IL-2 production, ELISA; format: cell-based, human; conditions: for Cytokine production (M.A.: mean absorbance) (C) % relative to control / IC50: Jurkat T cells; for Cytokine production (M.A.: mean absorbance) (C) % relative to control: PMA + calcium ionophore, IL-2 ELISA; for IC50: IL-2, % inhibition relative to control, read-out: Cytokine production (C): IC50 value (concentration at which the compound induces 50% of mycolactone maximal activity); for Cytokine production (C): corresponding % of mycolactone activity (in brackets): relative to mycolactone (100%)
Protocol: (C) The immunosuppressive activity of mycolactone and variants was measured on Jurkat T cells (ATCC®; TIB-152™ clone E6-1), as models of human T lymphocytes. Cells were inoculated in 96-well plates (5×10^5 cells/well in RPMI 1640 medium supplemented with 10% fetal calf serum and 2 mM L-Glutamine) then incubated with serial dilutions of the various compounds for 4 h, and stimulated for 20 h with 50 ng/ml phorbol-12-myristate-13-acetate (PMA) and 1 μg/ml calcium ionophore. The production of IL-2 was then assessed in culture supernatants by ELISA.

[3] = test system: epithelial HeLa cell line; test: Cytopathic activity, MTT assay (effect on global cell metabolic activity); format: cell-based, human; conditions: for Metabolic activity (MA: mean absorbance) (A) % relative to control / IC50: HeLa cells, 48 h, MTT; for IC50: % inhibition relative to control, read-out: Metabolic activity (A): IC50 value (concentration at which the compound induces 50% of mycolactone maximal activity); for Metabolic activity (A): corresponding % of mycolactone activity (in brackets): relative to mycolactone (100%)
Protocol: (A) The cytopathic activity of mycolactone and variants was assessed in a [3-(4,5-Dimethylthiazol-2-yl)-2,5-Diphenyltetrazolium Bromide] (MTT) assay, using the epithelial HeLa cell line (ATCC®; CCL-2) as a model. Briefly, HeLa cells were plated in 96-well plates (10^4 cells/well) in Dulbecco's Modified Eagle culture medium supplemented with 10% fetal calf serum and 2 mM L-Glutamine. After 16 h, mycolactone or variants dilutions (final concentration 0.4-8 μM) were added to the wells, and incubated with the cells for 48 h, prior to the addition of MTT at 50 μg/ml. After 4 h, culture supernatants were removed and the formed formazan crystals dissolved in dimethyl sulfoxide (DMSO) for absorbance measurement.

HeLa cell = test: Cytotoxicity by Trypan Blue dye exclusion (cell viability); format: cell-based, human
Protocol: (B) HeLa cell death being negligible in the concentration and time frame conditions used in (A), the cytotoxicity of 16 μM mycolactone and variants was evaluated after 48 h of incubation by cell exclusion of the Trypan Blue dye. Here, one part of Trypan blue (0.4% in phosphate-buffered saline PBS) was mixed with one part cell suspension (recovered from cell culture wells by trypsin treatment). The mixture was incubated for 3 min at room temperature and unstained (viable) and stained (nonviable) cells counted separately with a hemacytometer.

[4] = Formalin-induced acute pain model; format: in vivo; conditions: intraperitoneally 60 minutes before formalin, Mycolactone 0.5 mg/kg; for activity against inflammatory pain (global score of pain, late phase 10-40 min): variant 22 5 mg/kg
Protocol: The analgesic properties of Mycolactone and variant 22 were tested in the formalin-induced acute pain model (Encyclopedia of Psychopharmacology, Volume 2, p. 111).
Briefly, Mycolactone and variant 22 were administered intraperitoneally at 0.5 and 5 mg/kg respectively, 60 minutes before the subcutaneous injection of 10 μl of a 5% formalin solution of the right hind-leg. Two negative control groups, injected with PBS (neutral) or ethanol vehicle (vehicle) were tested in the same conditions. A group injected with 3 mg/kg morphin 15 minutes before formalin injection was used as a positive reference.
The time spent in licking/biting and the number of jumps during the early phase (0-5 min) and the late phase (10-40 min) were recorded, as indicators of acute and inflammatory pain, respectively. The graphs in FIG. 5 compare the global score of pain (rank sum of licking/biting time and jump number) in the five groups of animals (Mann-Whitney test on trimmed means; n≧6; *P<0.05 **P<0.01 vs. neutral; # P<0.05, # P<0.01 vs. vehicle.

dendritic cells = conditions: Coutanceau et al., 2007; cited from earlier work
T cell trafficking = conditions: Guenin-Macé et al., 2011; cited from earlier work
macrophages = conditions: Coutanceau et al., 2005; cited from earlier work

Row | Compound | CD62-L expression (MFI: mean fluorescence intensity) (D) % relative to control ([1]; 4 μM) | CD62-L expression (MFI: mean fluorescence intensity) (D) % relative to control ([1]; 8 μM) | IC50 ([1]; T-cell) | CD62-L expression (D): corresponding % of mycolactone activity (in brackets) [1] | Cytokine production (M.A.: mean absorbance) (C) % relative to control ([2]; 0.4 μM) | Cytokine production (M.A.: mean absorbance) (C) % relative to control ([2]; 4 μM) | Cytokine production (M.A.: mean absorbance) (C) % relative to control ([2]; 8 μM) | IC50 ([2]; Homo sapiens) | Cytokine production (C): corresponding % of mycolactone activity (in brackets) [2] | Metabolic activity (MA: mean absorbance) (A) % relative to control ([3]; 0.4 μM) | Metabolic activity (MA: mean absorbance) (A) % relative to control ([3]; 4 μM) | Metabolic activity (MA: mean absorbance) (A) % relative to control ([3]; 8 μM) | Metabolic activity (A): corresponding % of mycolactone activity (in brackets) [3] | activity against inflammatory pain (global score of pain, late phase 10-40 min) [4] | also measured
1 | C/C(=C\[C@@H](C)[C@H](O)C[C@@H](C)O)C[C@H](C)[C@H]1C/C=C/C[C@H](C)[C@@H](O)CCCC(=O)O1 [Compound 11c, (6 S,7 S,9E,12R)-12-[(2S,4E,6R,7R,9R)-7,9-dihydroxy-4,6-dimethyldec-4-en-2-yl]-6-hydroxy-7-methyl-1-oxacyclododec-9-en-2-one] | 20% | 40% | 16 µM | 0.2% | 0% | 30% | 50% | 8 µM | 1.2% | 0% | 30% | 40% | 20% | – | inhibition of CD62-L expression by lymphocytes [1]: significant inhibition; inhibition of IL-2 production by lymphocytes [2]: significant inhibition; effect on the metabolic activity of HeLa cells [3]: showed inhibitory effect; IC50 ([3]; Homo sapiens): 16 µM; cytotoxicity (HeLa cell; in the conditions tested): not cytotoxic
2 | CC(=C\C=C\C(C)=C\[C@H](O)[C@@H](O)C[C@H](C)O)/C=C(C)/C=C/C(=O)O[C@H]1CCCC(=O)O[C@@H](C(C)C)C/C=C/C[C@@H]1C [Compound 22, (6S,7S,9E,12R)-7-methyl-2-oxo-12-(propan-2-yl)-1-oxacyclododec-9-en-6-yl(2E,4E,6E,8E,10E,12S,13S,15S)-12,13,15-trihydroxy-4,6,10-trimethylhexadeca-2,4,6,8,10-pentaenoate] | 60% | 70% | 3.7 µM | 0.8% | 15% | 58% | 95% | 3 µM | 3.3% | 0% | 0% | 0% | – | effective | reduction of CD62-L expression ([1]; at concentrations >4 μM): significant reduction; reduction of IL-2 production ([2]; at concentrations >4 μM): significant reduction; cytopathic effect ([3]; at concentrations <16 μM): no cytotoxic nor cytopathic effect; cytotoxic effect (HeLa cell; at concentrations <16 μM): no cytotoxic nor cytopathic effect
3 | Mycolactone [reference compound] | 100% | 100% | – | 100% | 99% | 100% | 100% | – | 100% | 70% | 80% | 100% | 100% | significant activity | production of chemotactic signals by dendritic cells (dendritic cells): inhibits the production of chemotactic signals; T cell trafficking in vivo (T cell trafficking): severely impairs T cell trafficking; release of inflammatory TNF by macrophages (macrophages): blocks the release of inflammatory TNF; CD62-L expression (MFI: mean fluorescence intensity) (D) % relative to control ([1]; 0.4 μM): 100%; expression of CD62-L ([1]; at concentrations >0.4 μM): totally suppressed; IC50 [1]: < 0.03 µM; IC50 [2]: 0.1 µM; activation-induced production of IL-2 by human lymphocytes ([2]; at concentrations >0.4 μM): complete blockade; IC50 [3]: 3.5 µM; cell viability ([3]; at concentrations >0.4 μM): markedly reduced cell viability; activity against acute pain (global score of pain, early phase 0-5 min) [4]: significant activity
